These results are taken from patent US20230399312A1, “SUBSTITUTED PYRIMIDINES AND METHODS OF USE” (THERAVANCE BIOPHARMA R&D IP, LLC, priority 2020, published 2023).

Assay [1] concerns TGF-β-stimulated SMAD3 phosphorylation in BEAS-2B cells. In words: Cellular ALK5 potency assay, inhibition of TGF-β stimulated pSMAD3 formation in BEAS-2B cells. Type of assay: cell-based. Conditions: Homo sapiens, pSMAD3, TGF-β 10 ng/mL, read-out: BEAS2B pIC50 (converted). Put shortly:
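Potency is expressed as pIC50, based on dose-dependent reduction of TGF-β-induced pSMAD3 AlphaLISA signal relative to stimulated cells without compound. BEAS-2B cells received compound 1 h before a 30 min, 10 ng/mL TGF-β challenge.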

In assay [2] the target is T1, recombinant human ALK5 (TGF-βR1) protein (Homo sapiens, UniProt P36897).
T1 construct: purchased Life Technologies PR9075A
T1 sequence (P36897 34-503): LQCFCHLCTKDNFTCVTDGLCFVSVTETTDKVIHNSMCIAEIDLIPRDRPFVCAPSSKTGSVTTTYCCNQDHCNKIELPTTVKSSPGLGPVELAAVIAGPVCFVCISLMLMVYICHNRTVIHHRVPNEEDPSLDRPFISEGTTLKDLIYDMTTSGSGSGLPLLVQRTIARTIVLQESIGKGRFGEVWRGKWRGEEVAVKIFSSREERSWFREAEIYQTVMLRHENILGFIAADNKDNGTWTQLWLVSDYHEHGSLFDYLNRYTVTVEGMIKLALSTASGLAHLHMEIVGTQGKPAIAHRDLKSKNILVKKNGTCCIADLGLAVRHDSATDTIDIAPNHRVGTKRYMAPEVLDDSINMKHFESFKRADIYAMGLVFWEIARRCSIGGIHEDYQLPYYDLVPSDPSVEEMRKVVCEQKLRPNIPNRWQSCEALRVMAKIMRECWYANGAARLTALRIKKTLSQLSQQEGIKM
In words: Biochemical ALK5 (TGF-βR1) assay to measure pKi (LANCE Ultra ULight kinase assay). The following applies: apparent pKi, converted from pIC50 by Cheng-Prusoff. Put shortly:
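Dose-response series of each compound were preincubated with the kinase for 60 minutes at room temperature. Phosphorylation proceeded for 60 minutes at 37 °C after ATP addition, was quenched with EDTA, and was detected with a europium anti-phospho-Thr1342 antibody by TR-FRET; pKi was calculated from pIC50.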
(In general: Time-resolved FRET reads energy transfer from a long-lived donor to a nearby acceptor.)

SMILES strings stand for the structures.

Take `Cc1cccc(-c2nccc(Nc3ccnc(Nc4ccc(NS(=O)(=O)C5CCNCC5)cc4)n3)n2)n1` [Compound 229, N-[4-[[4-[[2-(6-methyl-2-pyridyl)pyrimidin-4-yl]amino]pyrimidin-2-yl]amino]phenyl]piperidine-4-sulfonamide]: the IC50 in assay [1] is 25.1 to 158 nM. Further, the Ki in assay [2] was 0.0398 to 0.316 nM.
For the compound `Cc1cccc(-c2nccc(Nc3ccnc(Nc4ccc(C5CCNC5)cc4)n3)n2)n1` (stereo not drawn) [Compound 231, N4-[2-(6-methyl-2-pyridyl)pyrimidin-4-yl]-N2-(4-pyrrolidin-3-ylphenyl)pyrimidine-2,4-diamine], the IC50 in assay [1] is 25.1 to 158 nM. Also, the Ki in assay [2] was 0.0398 to 0.316 nM.
For `Cc1cccc(-c2nccc(Nc3ccnc(Nc4ccc(-c5cn6c(n5)CNCC6)cc4)n3)n2)n1` [Compound 232, N4-[2-(6-methyl-2-pyridyl)pyrimidin-4-yl]-N2-[4-(5,6,7,8-tetrahydroimidazo[1,2-a]pyrazin-2-yl)phenyl]pyrimidine-2,4-diamine] the same measures were 25.1 to 158 nM and 0.0398 to 0.316 nM.
For `Cc1cccc(-c2nccc(Nc3ccnc(Nc4cccc(N5CCN(C)CC5)c4)n3)n2)n1` [Compound 233, N2-[3-(4-methylpiperazin-1-yl)phenyl]-N4-[2-(6-methyl-2-pyridyl)pyrimidin-4-yl]pyrimidine-2,4-diamine] the same measures were 25.1 to 158 nM and 0.0398 to 0.316 nM.
For `Cc1cccc(-c2nccc(Nc3ccnc(Nc4ccc(Br)cc4)n3)n2)n1` [Compound 234, N2-(4-bromophenyl)-N4-[2-(6-methyl-2-pyridyl)pyrimidin-4-yl]pyrimidine-2,4-diamine] the same measures were 25.1 to 158 nM and 3.98 to 31.6 nM.
`Cc1cccc(-c2nccc(Nc3ccnc(Nc4ccc(N5CCN(CC6CCC(=O)O6)CC5)cc4)n3)n2)n1` (stereo not drawn) [Compound 235, 5-[[4-[4-[[4-[[2-(6-methyl-2-pyridyl)pyrimidin-4-yl]amino]pyrimidin-2-yl]amino]phenyl]piperazin-1-yl]methyl]tetrahydrofuran-2-one]: the IC50 in assay [1] is at most 20 nM. Further, the Ki in assay [2] was 0.0398 to 0.316 nM.
For `COC(=O)C1CN(CCNc2ccc(Nc3nccc(Nc4ccnc(-c5cccc(C)n5)n4)n3)cc2)CCN1C` (stereo not drawn) [Compound 236, methyl 1-methyl-4-[2-[4-[[4-[[2-(6-methyl-2-pyridyl)pyrimidin-4-yl]amino]pyrimidin-2-yl]amino]anilino]ethyl] piperazine-2-carboxylate] the same measures were 25.1 to 158 nM and 0.398 to 3.16 nM.
Taken in the same sequence, the figures for `Cc1cccc(-c2nccc(Nc3ccnc(Nc4ccc(CN5CC(C(=O)O)C5)cc4)n3)n2)n1` [Compound 237, 1-[[4-[[4-[[2-(6-methyl-2-pyridyl)pyrimidin-4-yl]amino]pyrimidin-2-yl]amino]phenyl]methyl] azetidine-3-carboxylic acid] were 200 to 1260 nM and 0.0398 to 0.316 nM.
For `Cc1cccc(-c2nccc(Nc3ccnc(Nc4ccc(Cl)c(CN5CCN(C)CC5)c4)n3)n2)n1` [Compound 238, N2-[4-chloro-3-[(4-methylpiperazin-1-yl)methyl]phenyl]-N4-[2-(6-methyl-2-pyridyl)pyrimidin-4-yl]pyrimidine-2,4-diamine] the same measures were 25.1 to 158 nM and 0.0398 to 0.316 nM.
With `Cc1cccc(-c2nccc(Nc3ccnc(Nc4ccc(C(=O)OC5CCNCC5)s4)n3)n2)n1` [Compound 239, 4-piperidyl 5-[[4-[[2-(6-methyl-2-pyridyl)pyrimidin-4-yl]amino]pyrimidin-2-yl]amino]thiophene-2-carboxylate], the IC50 in assay [1] was 25.1 to 158 nM. The Ki in assay [2] was 0.0398 to 0.316 nM.
Consider `Cc1cccc(-c2nccc(Nc3ccnc(Nc4ccc(CN5C[C@@H](C)N[C@@H](C)C5)cc4)n3)n2)n1` [Compound 240, N2-[4-[[(3R,5S)-3,5-dimethylpiperazin-1-yl]methyl]phenyl]-N4-[2-(6 methyl-2-pyridyl)pyrimidin-4-yl]pyrimidine-2,4-diamine], for which the IC50 in assay [1] was 25.1 to 158 nM. Also, in assay [2], the Ki is 0.0398 to 0.316 nM.
For `CCOC(=O)CC1CNCCN1c1ccc(Nc2nccc(Nc3ccnc(-c4cccc(C)n4)n3)n2)cc1` (stereo not drawn) [Compound 241, ethyl 2-[1-[4-[[4-[[2-(6-methyl-2-pyridyl)pyrimidin-4-yl]amino]pyrimidin-2-yl]amino]phenyl]piperazin-2-yl]acetate] the same measures were 25.1 to 158 nM and 0.0398 to 0.316 nM.
For `Cc1cccc(-c2nccc(Nc3ccnc(Nc4ccc(CN5CCOCC5)c(F)c4)n3)n2)n1` [Compound 242, N2-[3-fluoro-4-(morpholinomethyl)phenyl]-N4-[2-(6-methyl-2-pyridyl)pyrimidin-4-yl]pyrimidine-2,4-diamine] the same measures were 25.1 to 158 nM and 0.0398 to 0.316 nM.
For `Cc1cccc(-c2nccc(Nc3ccnc(Nc4ccc(N5CCC(N(C)Cc6ccccn6)CC5)cc4)n3)n2)n1` [Compound 243, N2-[4-[4-[methyl(2-pyridylmethyl)amino]-1-piperidyl]phenyl]-N4-[2-(6-methyl-2-pyridyl)pyrimidin-4-yl]pyrimidine-2,4-diamine] the same measures were 25.1 to 158 nM and 0.0398 to 0.316 nM.
In the case of `Cc1cccc(-c2nccc(Nc3ccnc(Nc4ccc(F)c(CN5CCN(C)CC5)c4)n3)n2)n1` [Compound 244, N2-[4-fluoro-3-[(4-methylpiperazin-1-yl)methyl]phenyl]-N4-[2-(6-methyl-2-pyridyl)pyrimidin-4-yl]pyrimidine-2,4-diamine], the IC50 in assay [1] was 25.1 to 158 nM. The Ki in assay [2] was 0.0398 to 0.316 nM.
Taken in the same sequence, the figures for `Cc1cccc(-c2nccc(Nc3ccnc(Nc4cnn(C5CCNC5)c4)n3)n2)n1` (stereo not drawn) [Compound 245, N4-[2-(6-methyl-2-pyridyl)pyrimidin-4-yl]-N2-(1-pyrrolidin-3-ylpyrazol-4-yl)pyrimidine-2,4-diamine] were 200 to 1260 nM and 0.0398 to 0.316 nM.
For `CN(C)C1CCN(c2ccc(Nc3nccc(Nc4ccnc(-c5cc(Cl)c(F)cc5F)n4)n3)cc2)CC1` [Compound 246, N4-[2-(5-chloro-2,4-difluoro-phenyl)pyrimidin-4-yl]-N2-[4-[4-(dimethylamino)-1-piperidyl]phenyl]pyrimidine-2,4-diamine] the same measures were 25.1 to 158 nM and 0.0398 to 0.316 nM.
For `Cc1cccc(-c2nccc(Nc3ccnc(Nc4ccc(C)c(CN5CCNCC5)c4)n3)n2)n1` [Compound 247, N2-[4-methyl-3-(piperazin-1-ylmethyl)phenyl]-N4-[2-(6-methyl-2-pyridyl)pyrimidin-4-yl]pyrimidine-2,4-diamine] the same measures were 25.1 to 158 nM and 0.0398 to 0.316 nM.
As for `Cc1cccc(-c2nccc(Nc3ccnc(Nc4ccc(CN5CCC(C(=O)OC6CCN(C)C6)CC5)cc4)n3)n2)n1` (stereo not drawn) [Compound 248, (1-methylpyrrolidin-3-yl) 1-[[4-[[4-[[2-(6-methyl-2-pyridyl)pyrimidin-4-yl]amino]pyrimidin-2-yl]amino]phenyl]methyl] piperidine-4-carboxylate], the IC50 in assay [1] is 25.1 to 158 nM. In addition, the Ki in assay [2] is 0.0398 to 0.316 nM.
`Cc1cccc(-c2nccc(Nc3ccnc(Nc4ccc(CN5CCNC(C)(C)C5)cc4)n3)n2)n1` [Compound 249, N2-[4-[(3,3-dimethylpiperazin-1-yl)methyl]phenyl]-N4-[2-(6-methyl-2-pyridyl)pyrimidin-4-yl]pyrimidine-2,4-diamine]: the IC50 in assay [1] was 25.1 to 158 nM. In addition, the Ki in assay [2] is 0.0398 to 0.316 nM.
Taken in the same sequence, the figures for `COCCOc1ccc(Nc2nccc(Nc3ccnc(-c4cccc(C)n4)n3)n2)cc1` [Compound 250, N2-[4-(2-methoxyethoxy)phenyl]-N4-[2-(6-methyl-2-pyridyl)pyrimidin-4-yl]pyrimidine-2,4-diamine] were 25.1 to 158 nM and 0.398 to 3.16 nM.
For `CNC1CCN(c2ccc(Nc3nccc(Nc4ccnc(-c5cccc(C)n5)n4)n3)cc2)CC1` [Compound 251, N2-[4-[4-(methylamino)-1-piperidyl]phenyl]-N4-[2-(6-methyl-2-pyridyl)pyrimidin-4-yl]pyrimidine-2,4-diamine] the same measures were 200 to 1260 nM and 0.0398 to 0.316 nM.
For `COC(=O)Cc1cc(Nc2nccc(Nc3ccnc(-c4cccc(C)n4)n3)n2)ccc1N1CCNCC1` [Compound 252, methyl 2-[5-[[4-[[2-(6-methyl-2-pyridyl)pyrimidin-4-yl]amino]pyrimidin-2-yl]amino]-2-piperazin-1-yl-phenyl]acetate] the same measures were 25.1 to 158 nM and at most 0.0316 nM.
With `Cc1cccc(-c2nccc(Nc3ccnc(Nc4ccc(CCN(C)C)cc4)n3)n2)n1` [Compound 253, N2-[4-[2-(dimethylamino)ethyl]phenyl]-N4-[2-(6-methyl-2-pyridyl)pyrimidin-4-yl]pyrimidine-2,4-diamine], the IC50 in assay [1] was 25.1 to 158 nM. Besides, in assay [2], the Ki is 0.0398 to 0.316 nM.
